# Measured values as given in patent US20170190671A1, “BIS(ARYL)CATECHOL DERIVATIVES AS HERBICIDES” (E I DU PONT DE NEMOURS AND COMPANY, priority 2014, published 2017).
# Experiments:
# [1] = system: wild poinsettia (Euphorbia heterophylla); assay: Test E preemergence; format: in vivo; settings: scale 0 to 100
# Method in brief: (§1)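 Test chemicals, formulated in a non-phytotoxic solvent with surfactant, are applied to silt loam soil after sowing or sprayed over young plants (1–4 leaves) in potting medium. Plants are then kept in a greenhouse for 14 to 21 days and scored 0–100 for control.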
# [2] = system: horseweed (Conyza canadensis); assay: Test E preemergence; format: in vivo; settings: scale 0 to 100
# Method in brief: as §1
compound,measurement,setting,value
"Fc1ccc(F)c(Oc2ncc(Cl)cn2)c1Oc1ncc(Cl)cn1 [Compound 34, 2,2′-[(3,6-difluoro-1,2-phenylene)bis(oxy)]bis[5-chloropyrimidine]]","Plant response rating, Poinsettia, Wild",[1]; 16 g ai/ha,0
same,"Plant response rating, Poinsettia, Wild",[1]; 31 g ai/ha,10
same,"Plant response rating, Poinsettia, Wild",[1]; 62 g ai/ha,20
same,"Plant response rating, Poinsettia, Wild",[1]; 125 g ai/ha,50
same,"Plant response rating, Horseweed",[2]; 16 g ai/ha,0
same,"Plant response rating, Horseweed",[2]; 31 g ai/ha,0
same,"Plant response rating, Horseweed",[2]; 62 g ai/ha,0
same,"Plant response rating, Horseweed",[2]; 125 g ai/ha,0
